In ChEMBL document CHEMBL5385847, “Design, synthesis and biological evaluation of a new class of 7H-pyrrolo[2,3-d]pyrimidine derivatives as Mps1 inhibitors for the treatment of breast cancer” (Eur J Med Chem, 2023):
The source made the active and inactive calls. The rule behind the calls is not given here.

How the values were obtained:
MCF7 [1] = assay: Antiproliferative activity against human MCF7 cells upto 5 uM measured after 14 days by colony formation assay; format: functional, cell-based; conditions: time 14.0 day
[2] = target: Cytoplasmic tyrosine-protein kinase BMX (Homo sapiens) (UniProt P51813); assay: Inhibition of human Bmx at 0.1 uM by KINOMEscan assay relative to control
Cytoplasmic tyrosine-protein kinase BMX (Homo sapiens), sequence (P51813 whole entry): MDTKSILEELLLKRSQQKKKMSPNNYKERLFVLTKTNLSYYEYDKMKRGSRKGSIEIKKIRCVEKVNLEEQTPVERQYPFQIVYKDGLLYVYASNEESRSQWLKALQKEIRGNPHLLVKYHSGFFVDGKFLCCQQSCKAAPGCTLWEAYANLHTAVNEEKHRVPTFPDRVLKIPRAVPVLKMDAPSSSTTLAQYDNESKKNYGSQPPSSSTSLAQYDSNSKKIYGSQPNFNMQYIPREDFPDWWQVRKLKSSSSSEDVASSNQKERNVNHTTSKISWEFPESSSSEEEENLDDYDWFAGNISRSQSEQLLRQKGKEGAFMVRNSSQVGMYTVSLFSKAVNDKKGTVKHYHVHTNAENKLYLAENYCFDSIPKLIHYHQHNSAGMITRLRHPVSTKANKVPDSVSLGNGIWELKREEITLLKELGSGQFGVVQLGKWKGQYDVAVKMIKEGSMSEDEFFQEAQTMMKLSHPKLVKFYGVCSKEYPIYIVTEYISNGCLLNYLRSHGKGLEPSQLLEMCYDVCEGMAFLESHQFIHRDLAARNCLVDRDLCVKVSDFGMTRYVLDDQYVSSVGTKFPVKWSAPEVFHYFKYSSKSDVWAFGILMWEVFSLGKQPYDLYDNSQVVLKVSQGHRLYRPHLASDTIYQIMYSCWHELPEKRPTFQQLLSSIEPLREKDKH

[3] = target: T1, Dual specificity protein kinase TTK (Homo sapiens) (UniProt P33981); assay: Inhibition of human Mps1 at 1 uM by KINOMEscan assay relative to control
T1 sequence (whole entry): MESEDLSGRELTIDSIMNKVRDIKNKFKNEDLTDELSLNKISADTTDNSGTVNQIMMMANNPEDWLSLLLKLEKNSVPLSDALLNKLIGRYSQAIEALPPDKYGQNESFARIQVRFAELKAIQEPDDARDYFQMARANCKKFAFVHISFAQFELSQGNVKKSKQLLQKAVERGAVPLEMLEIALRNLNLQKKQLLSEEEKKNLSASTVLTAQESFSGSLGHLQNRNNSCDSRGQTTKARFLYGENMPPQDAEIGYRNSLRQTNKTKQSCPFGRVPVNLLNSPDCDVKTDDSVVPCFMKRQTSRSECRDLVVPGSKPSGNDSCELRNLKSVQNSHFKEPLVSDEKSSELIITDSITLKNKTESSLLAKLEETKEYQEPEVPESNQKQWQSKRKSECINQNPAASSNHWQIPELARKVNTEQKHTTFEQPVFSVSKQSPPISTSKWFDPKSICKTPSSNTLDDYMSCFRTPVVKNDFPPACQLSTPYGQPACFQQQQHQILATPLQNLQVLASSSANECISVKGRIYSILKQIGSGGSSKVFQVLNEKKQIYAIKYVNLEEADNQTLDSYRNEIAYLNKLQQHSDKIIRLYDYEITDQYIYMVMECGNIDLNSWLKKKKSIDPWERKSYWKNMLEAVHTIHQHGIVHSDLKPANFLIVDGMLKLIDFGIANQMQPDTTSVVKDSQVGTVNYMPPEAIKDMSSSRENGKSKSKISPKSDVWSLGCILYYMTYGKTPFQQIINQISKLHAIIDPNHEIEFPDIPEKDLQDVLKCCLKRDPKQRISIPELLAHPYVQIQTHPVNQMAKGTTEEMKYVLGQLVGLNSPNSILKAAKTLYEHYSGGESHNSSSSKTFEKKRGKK

4T1 [4] = assay: Induction of apoptosis in 4T1 cells assessed as early apoptotic cells at 1 uM incubated for 48 hrs by Annexin V-FITC/PI staining based flow cytometry (reference value: 0.32 %); format: functional, Mus musculus
4T1 [5] = assay: Antiproliferative activity against 4T1 cells assessed as inhibition of cell viability by MTT assay; format: functional, cell-based; conditions: Mus musculus
HCT-116 = assay: Antiproliferative activity against human HCT-116 cells assessed as inhibition of cell viability by MTT assay; format: functional, cell-based
[6] = target: Angiopoietin-1 receptor (Homo sapiens) (UniProt Q02763); assay: Inhibition of human Tie2 at 1 uM by KINOMEscan assay relative to control
Angiopoietin-1 receptor (Homo sapiens), sequence (Q02763 whole entry): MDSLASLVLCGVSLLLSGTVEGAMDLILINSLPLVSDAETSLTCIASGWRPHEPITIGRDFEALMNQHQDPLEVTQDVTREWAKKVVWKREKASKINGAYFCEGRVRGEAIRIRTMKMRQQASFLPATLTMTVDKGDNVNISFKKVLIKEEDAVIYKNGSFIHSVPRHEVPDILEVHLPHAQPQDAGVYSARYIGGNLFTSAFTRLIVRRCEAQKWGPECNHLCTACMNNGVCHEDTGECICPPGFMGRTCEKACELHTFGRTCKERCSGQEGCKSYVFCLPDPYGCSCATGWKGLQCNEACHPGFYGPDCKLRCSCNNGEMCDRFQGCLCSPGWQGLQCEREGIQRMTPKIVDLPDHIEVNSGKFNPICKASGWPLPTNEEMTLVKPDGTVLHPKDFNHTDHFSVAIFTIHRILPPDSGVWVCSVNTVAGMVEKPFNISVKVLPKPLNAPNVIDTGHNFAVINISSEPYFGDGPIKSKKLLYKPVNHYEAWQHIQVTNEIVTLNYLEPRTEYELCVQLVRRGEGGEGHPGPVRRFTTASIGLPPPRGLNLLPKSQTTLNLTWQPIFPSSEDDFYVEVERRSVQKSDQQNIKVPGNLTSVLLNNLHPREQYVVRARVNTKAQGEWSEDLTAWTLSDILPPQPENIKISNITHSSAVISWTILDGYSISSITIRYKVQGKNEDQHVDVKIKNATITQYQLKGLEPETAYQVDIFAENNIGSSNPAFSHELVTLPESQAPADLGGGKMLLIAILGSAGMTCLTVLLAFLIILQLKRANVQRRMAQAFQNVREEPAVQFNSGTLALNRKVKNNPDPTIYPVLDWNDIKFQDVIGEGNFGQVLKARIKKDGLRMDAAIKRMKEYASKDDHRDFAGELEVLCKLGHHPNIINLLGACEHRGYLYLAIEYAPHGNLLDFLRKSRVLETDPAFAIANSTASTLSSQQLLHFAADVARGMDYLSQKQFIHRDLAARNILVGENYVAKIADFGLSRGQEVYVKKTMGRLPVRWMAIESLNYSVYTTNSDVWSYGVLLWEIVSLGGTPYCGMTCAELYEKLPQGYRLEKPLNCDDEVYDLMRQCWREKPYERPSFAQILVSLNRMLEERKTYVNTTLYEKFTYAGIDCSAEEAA

[7] = target: Tyrosine-protein kinase Yes (Homo sapiens) (UniProt P07947); assay: Inhibition of human Yes at 1 uM by KINOMEscan assay relative to control
Tyrosine-protein kinase Yes (Homo sapiens), sequence (P07947 2-543 limits assumed): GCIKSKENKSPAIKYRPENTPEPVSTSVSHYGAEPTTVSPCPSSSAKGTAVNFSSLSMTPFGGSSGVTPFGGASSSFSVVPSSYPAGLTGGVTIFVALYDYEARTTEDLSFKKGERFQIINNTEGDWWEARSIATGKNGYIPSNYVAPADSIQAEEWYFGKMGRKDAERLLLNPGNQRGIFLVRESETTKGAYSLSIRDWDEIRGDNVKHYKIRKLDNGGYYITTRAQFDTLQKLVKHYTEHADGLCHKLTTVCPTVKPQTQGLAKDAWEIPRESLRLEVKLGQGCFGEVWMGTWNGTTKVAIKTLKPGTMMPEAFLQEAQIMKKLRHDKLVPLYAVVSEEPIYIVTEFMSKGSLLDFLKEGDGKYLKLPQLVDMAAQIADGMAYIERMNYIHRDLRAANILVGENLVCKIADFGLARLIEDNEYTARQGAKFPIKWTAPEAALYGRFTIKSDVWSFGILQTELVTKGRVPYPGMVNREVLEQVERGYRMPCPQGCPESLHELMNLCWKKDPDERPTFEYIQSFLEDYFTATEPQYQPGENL

[8] = target: T1, Dual specificity protein kinase TTK (Homo sapiens); assay: Inhibition of human Mps1 at 0.1 uM by KINOMEscan assay relative to control
A549 = assay: Antiproliferative activity against human A549 cells assessed as inhibition of cell viability by MTT assay; format: functional, cell-based
ES-2 = assay: Antiproliferative activity against human ES2 cells assessed as inhibition of cell viability by MTT assay; format: functional, cell-based
4T1 [9] = assay: Induction of apoptosis in 4T1 cells assessed as increase in cleaved PARP level upto 3 uM incubated for 48 hrs by Western blot analysis; format: functional, cell-based; conditions: Mus musculus
[10] = target: Tyrosine-protein kinase Yes (Homo sapiens) (UniProt P07947); assay: Inhibition of human Yes at 0.1 uM by KINOMEscan assay relative to control
[11] = Toxicity in BALB/C mouse xenografted with mouse 4T1-Luc cells assessed as histological change in heart at 30 to 60 mg/kg, po qd treated for 15 days by H and E staining based analysis; format: organism-based; conditions: in vivo, 360 h, dose 30-60 mg/kg, time 15 day
MCF7 [12] = assay: Antiproliferative activity against human MCF7 cells assessed as inhibition of cell viability incubated for 24 to 72 hrs by MTT assay; format: functional, cell-based; conditions: dose <= 10.0 µM, time 24-72 hrs
MCF7 [13] = assay: Induction of apoptosis in human MCF7 cells assessed as late apoptotic cells at 5 uM incubated for 48 hrs by Annexin V-FITC/PI staining based flow cytometry (reference value: 0.63 %); format: functional
[14] = Toxicity in BALB/C mouse xenografted with mouse 4T1-Luc cells assessed as histological change in lung at 30 to 60 mg/kg, po qd treated for 15 days by H and E staining based analysis; format: organism-based; conditions: in vivo, 360 h, dose 30-60 mg/kg, time 15 day
[15] = target: Hepatocyte growth factor receptor (Homo sapiens) (UniProt P08581); assay: Inhibition of human Met at 1 uM by KINOMEscan assay relative to control
Hepatocyte growth factor receptor (Homo sapiens), sequence (P08581 whole entry): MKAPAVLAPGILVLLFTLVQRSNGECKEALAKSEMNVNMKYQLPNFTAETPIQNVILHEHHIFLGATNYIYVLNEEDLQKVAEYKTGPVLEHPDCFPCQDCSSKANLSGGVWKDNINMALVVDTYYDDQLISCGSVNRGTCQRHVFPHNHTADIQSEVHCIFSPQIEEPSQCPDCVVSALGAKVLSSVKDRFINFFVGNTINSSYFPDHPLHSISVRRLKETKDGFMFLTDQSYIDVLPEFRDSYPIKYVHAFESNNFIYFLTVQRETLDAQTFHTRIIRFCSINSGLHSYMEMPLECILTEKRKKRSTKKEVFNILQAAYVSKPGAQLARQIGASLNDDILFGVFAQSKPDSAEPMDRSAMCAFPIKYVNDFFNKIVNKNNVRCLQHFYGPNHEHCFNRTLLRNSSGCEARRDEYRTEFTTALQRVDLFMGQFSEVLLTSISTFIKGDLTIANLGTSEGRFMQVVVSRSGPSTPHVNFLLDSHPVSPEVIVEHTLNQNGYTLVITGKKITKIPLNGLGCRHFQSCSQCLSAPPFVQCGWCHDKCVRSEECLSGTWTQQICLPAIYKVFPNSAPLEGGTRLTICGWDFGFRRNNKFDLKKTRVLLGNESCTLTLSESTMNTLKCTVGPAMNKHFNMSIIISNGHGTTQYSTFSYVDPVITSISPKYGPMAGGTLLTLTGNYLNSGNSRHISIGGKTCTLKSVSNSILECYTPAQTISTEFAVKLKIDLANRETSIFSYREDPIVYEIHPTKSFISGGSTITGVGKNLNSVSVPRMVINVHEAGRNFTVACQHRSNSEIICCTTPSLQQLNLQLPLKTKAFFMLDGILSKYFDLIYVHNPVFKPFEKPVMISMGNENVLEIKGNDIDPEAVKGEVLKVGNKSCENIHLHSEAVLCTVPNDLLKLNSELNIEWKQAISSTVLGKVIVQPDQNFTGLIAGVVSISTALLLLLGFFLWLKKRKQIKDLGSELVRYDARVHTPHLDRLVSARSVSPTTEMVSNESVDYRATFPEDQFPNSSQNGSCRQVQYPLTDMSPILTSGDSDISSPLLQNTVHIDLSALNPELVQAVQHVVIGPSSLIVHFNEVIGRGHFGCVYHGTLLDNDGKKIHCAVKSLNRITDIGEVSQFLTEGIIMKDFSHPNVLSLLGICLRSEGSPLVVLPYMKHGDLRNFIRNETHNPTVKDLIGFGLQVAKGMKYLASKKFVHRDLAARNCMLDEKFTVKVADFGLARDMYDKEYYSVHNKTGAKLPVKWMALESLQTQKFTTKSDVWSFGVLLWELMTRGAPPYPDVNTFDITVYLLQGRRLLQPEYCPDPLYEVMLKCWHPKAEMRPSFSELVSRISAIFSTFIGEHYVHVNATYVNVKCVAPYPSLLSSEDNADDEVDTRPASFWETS

4T1 [16] = assay: Induction of apoptosis in 4T1 cells assessed as increase in cleaved caspase-3 level upto 3 uM incubated for 48 hrs by Western blot analysis; format: functional, cell-based; conditions: Mus musculus
HEY [17] = assay: Antiproliferative activity against human HEY cells assessed as inhibition of cell viability by MTT assay; format: functional, cell-based
HEY [18] = assay: Antiproliferative activity against human HEY cells assessed as inhibition of cell viability upto 10 uM incubated for 72 hrs by MTT assay; format: functional, cell-based
MCF7 [19] = assay: Induction of cell cycle arrest in human MCF7 cells at G2/M phase assessed as decrease in CDK1 level incubated for 24 hrs by Western blot analysis; format: functional, cell-based; conditions: dose <= 3.0 µM
4T1 [20] = assay: Antiproliferative activity against 4T1 cells upto 5 uM measured after 14 days by colony formation assay; format: functional, cell-based; conditions: Mus musculus, time 14.0 day
[21] = Toxicity in BALB/C mouse xenografted with mouse 4T1-Luc cells assessed as histological change in spleen at 30 to 60 mg/kg, po qd treated for 15 days by H and E staining based analysis; format: organism-based; conditions: in vivo, 360 h, dose 30-60 mg/kg, time 15 day
[22] = Toxicity in BALB/C mouse xenografted with mouse 4T1-Luc cells assessed as body weight change at 30 to 60 mg/kg, po qd treated for 15 days; format: organism-based; conditions: in vivo, 360 h, dose 30-60 mg/kg, time 15 day
4T1 [23] = assay: Antiproliferative activity against 4T1 cells assessed as inhibition of cell viability incubated for 24 to 72 hrs by MTT assay; format: functional, cell-based; conditions: Mus musculus, dose <= 10.0 µM, time 24-72 hrs
4T1 [24] = assay: Induction of apoptosis in 4T1 cells assessed as necrotic cells at 0.5 uM incubated for 48 hrs by Annexin V-FITC/PI staining based flow cytometry (reference value: 0.20 %); format: functional, Mus musculus
MCF7 [25] = assay: Induction of apoptosis in human MCF7 cells assessed as early apoptotic cells at 5 uM incubated for 48 hrs by Annexin V-FITC/PI staining based flow cytometry (reference value: 1.19 %); format: functional
HEK293 = assay: Antiproliferative activity against HEK293 cells assessed as inhibition of cell viability by MTT assay; format: toxicity, cell-based; conditions: human
MCF7 [26] = assay: Induction of cell cycle arrest in human MCF7 cells at G2/M phase incubated for 24 hrs by Annexin V/PI staining based flow cytometry; format: functional; conditions: dose <= 5.0 µM

In the case of `CN1CCN(c2ccc(Nc3nc(-n4nc(N)c5ccccc54)c4cc[nH]c4n3)cc2)CC1`, the Activity (MCF7 [1]) is reported as “Active”, the inhibition [2] is reported as 55% and the inhibition [3] is reported as greater than 90%. For the same compound, the Activity (4T1 [4]) was 1.61%, the IC50 (4T1 [5]) was 400 nM and the IC50 (HCT-116) was 1060 nM. The inhibition [6] was 92%, the inhibition [7] was 100% and the inhibition [8] was 87%. For the same compound, the IC50 (A549) was 2030 nM, the IC50 (ES-2) was greater than 3000 nM and the Activity (4T1 [9]) was “Active”. For the same compound, the inhibition [10] was 80%, the Activity [11] was “Non-Toxic” and the inhibition (MCF7 [12]) was “Dose-Dependent Effect”. The Activity (MCF7 [13]) was 17.53%, the Activity [14] was “Non-Toxic” and the inhibition [15] was 100%. The Activity (4T1 [16]) was “Active”, the IC50 (HEY [17]) was greater than 3000 nM and the inhibition (HEY [18]) was “Active”. The Activity (MCF7 [19]) was “Dose-Dependent Effect”, the Activity (4T1 [20]) was “Active” and the Activity [21] was “Non-Toxic”. For the same compound, the Activity [22] was “Non-Toxic”, the inhibition (4T1 [23]) was “Dose-Dependent Effect” and the Activity (4T1 [24]) was 0.7%. The Activity (MCF7 [25]) was 2.3%, the Activity (HEK293) was “Non-Toxic” and the Activity (MCF7 [26]) was “Dose-Dependent Effect”.
